Experimental data from patent US4276289A, “Antitumor glycosides, their preparation and use” (Farmitalia Carlo Erba, S.p.A., priority 1979, dated 1981).
≈ marks a conversion by molar mass, not a printed value. Where two headings read alike, the source gives them in different places.

Legend:
HeLa cells = assay: in vitro test against HeLa cells; type: cell-based; settings: Homo sapiens, read-out: ID50 on HeLa Cells
Description: The biological activity of the compounds according to the invention was tested in vitro against HeLa cells in comparison with daunorubicin and doxorubicin.
Compound ID50 on HeLa Cells (ng/ml)

P 388 leukemia = assay: in vivo activity against P 388 leukemia (treatment i.p. on day 1 after tumor implantation)

Row | Structure (SMILES) | IC50 (HeLa cells; in vitro, HeLa cells) | LTS (long term survivors) (P 388 leukemia; 6.6 mg/kg) | T/C % (P 388 leukemia; 6.6 mg/kg) | Toxicity (P 388 leukemia; 6.6 mg/kg) | LTS (long term survivors) (P 388 leukemia; 2.9 mg/kg) | Toxicity (P 388 leukemia; 2.9 mg/kg) | LTS (long term survivors) (P 388 leukemia; 4.4 mg/kg) | T/C % (P 388 leukemia; 4.4 mg/kg) | Toxicity (P 388 leukemia; 4.4 mg/kg) | IC50 (HeLa cells; HeLa) | also measured
1 | COc1cccc2c1C(=O)c1c(O)c3c(c(O)c1C2=O)C[C@@](O)(C(C)=O)C[C@@H]3O[C@H]1C[C@@H](N)[C@@H](OC)[C@H](C)O1 [3',4'-diepi-4'-O-methyl daunorubicin, 3',4'-diepi-4'-O-methyl-daunorubicin] | 0.036 µg/mL (≈ 0.0665 µM) | 0/8 | 145% | 0/8 |  |  |  |  |  |  | LTS (long term survivors) (P 388 leukemia; 10 mg/kg): 0/8; T/C % (P 388 leukemia; 10 mg/kg): 154%; Toxicity (P 388 leukemia; 10 mg/kg): 0/8; LTS (long term survivors) (P 388 leukemia; 15 mg/kg): 0/18; Toxicity (P 388 leukemia; 15 mg/kg): 0/18; LTS (long term survivors) (P 388 leukemia; 22 mg/kg): 0/10; T/C % (P 388 leukemia; 22 mg/kg): 222%; Toxicity (P 388 leukemia; 22 mg/kg): 0/10; LTS (long term survivors) (P 388 leukemia; 33 mg/kg): 1/10; T/C % (P 388 leukemia; 33 mg/kg): 231%; Toxicity (P 388 leukemia; 33 mg/kg): 2/10
2 | COc1cccc2c1C(=O)c1c(O)c3c(c(O)c1C2=O)C[C@@](O)(C(=O)CO)C[C@@H]3O[C@H]1C[C@@H](N)[C@@H](OC)[C@H](C)O1 [3',4'-diepi-4'-O-methyl doxorubicin, 3',4'-diepi-4'-O-methyl-doxorubicin] | 0.0059 µg/mL (≈ 0.0106 µM) | 0/10 | 76% | 10/10 | 0/10 | 2/10 | 0/10 | 109% | 10/10 |  | LTS (long term survivors) (P 388 leukemia; 1.9 mg/kg): 0/10; T/C % (P 388 leukemia; 1.9 mg/kg): 180%; Toxicity (P 388 leukemia; 1.9 mg/kg): 0/10; T/C % (P 388 leukemia; 2.9 mg/kg): 200%
3 | COc1cccc2c1C(=O)c1c(O)c3c(c(O)c1C2=O)C[C@@](O)(C(C)=O)C[C@@H]3O[C@H]1C[C@H](N)[C@H](O)[C@H](C)O1 [Daunorubicin, reference compound] |  | 0/8 | 163% | 3/8 | 0/18 | 0/18 | 0/18 |  | 0/18 | 0.014 µg/mL (≈ 0.0265 µM) | 
4 | COc1cccc2c1C(=O)c1c(O)c3c(c(O)c1C2=O)C[C@@](O)(C(=O)CO)C[C@@H]3O[C@H]1C[C@H](N)[C@H](O)[C@H](C)O1 [Doxorubicin, reference compound] |  | 0/10 | 233% | 0/8 |  |  | 2/10 | 209% | 0/8 | 0.0095 µg/mL (≈ 0.0175 µM) | 
